Experimental data published in patent publication US8188222B2, “High molecular weight derivative of nucleic acid antimetabolite” (priority 2006, dated 2012).
Structures can show the parent of a compound that is named as a salt.

Columns and labels:
[1] = system: mouse colon cancer, Colon26; test: Antitumor effect against tumor-bearing mouse (2); format: in vivo; conditions: once intravenously, dose 160 in terms of gemcitabine hydrochloride, average ± SD
Description: A tumor mass of mouse colon cancer, Colon26, which had been subcutaneously subcultured in a mouse was cut into a block having an edge of about 2 mm at each side, and was transplanted under the skin of a mouse using a trocar. On the 7th day after tumor transplantation, the compound of Example 11, the compound of Example 14 and the compound of Example 17, dissolved in a 5% glucose injection solution and gemcitabine hydrochloride as a control drug dissolved in physiological saline were respectively administered once intravenously at the doses indicated in Table 3. The tumor volumes on the day of initiation of administration, and on the 7th day and 26th day after the initiation of administration were calculated by the above-described equation, and the relative tumor volumes on the day of initiation of administration and on the 7th day and 26th day after the initiation of administration were determined.

[2] = system: mouse colon cancer, Colon26; test: Antitumor effect against tumor-bearing mouse (1); format: in vivo; conditions: 8th day after initiation of administration, once intravenously, volume on day of administration = 1.0, average ± SD
Description: Tumor of mouse colon cancer, Colon26, maintained by subcutaneous subculture in mice, was minced into about 2-mm square blocks, and the blocks were transplanted subcutaneously on the dorsal part of a mouse using a trocar. On the 7th day after tumor transplantation, the compound of Example 5 dissolved in a 5% glucose injection solution and gemcitabine hydrochloride as a control drug dissolved in physiological saline were respectively administered once intravenously at the doses indicated in Table 2. The tumor volumes on the day of initiation of administration and on the 8th day after the initiation of administration were calculated by the following equation, and the relative tumor volumes on the day of initiation of administration and on the 8th day after the initiation of administration were determined.

Compound: Nc1ccn([C@@H]2O[C@H](CO)[C@@H](O)C2(F)F)c(=O)n1 [Control drug, gemcitabine hydrochloride]
- Relative tumor volume * ([1]; 7th day after initiation of administration): 1.5 ± 1.5
- Relative tumor volume ** ([1]; 26th day after initiation of administration): 25.8 ± 36.0
- Relative tumor volume ([2]; dose 40 mg/kg in terms of gemcitabine hydrochloride): 5.3 ± 1.1
- Relative tumor volume ([2]; dose 200 mg/kg in terms of gemcitabine hydrochloride): 4.8 ± 1.7
